Literature values as cited in patent US20030232858A1, “Use of hydroxyeicosatetraenoic acid compounds to treat dry mouth” (priority 2002, published 2003).

For `CCCCC[C@H](O)/C=C/C=C\C/C=C\C/C=C\CCCC(=O)O` [15-HETE, 15-Hydroxyeicosatetraenoic acid], the effect on psoriasis (psoriatic skin lesions; injected into psoriatic skin lesions) is listed as “can improve psoriasis”, the “concentration required to cause a clinical effect” value (psoriatic skin lesions; intralesional injection, 0.1 ml) is listed as 10 µmol/L and the “amount required to cause a clinical effect” value (psoriatic skin lesions; intralesional injection, 0.1 ml of 10 μmol/L) is listed as 300 ng. The “anti-inflammatory properties in colitis” value (colitis) was “minor anti-inflammatory properties” and the “effects on leukotriene B4 production or its activity” value (leukotriene B4) was “inhibitory effects”.
